From paper PMC5557808 (Nature Communications, 2017)
Where a SMILES comes first, the peptide text is derived from it. [ ]: non-standard residue; d: D form. The star is where a group is joined. X1 = CC[N+](CC)(CC(=O)Nc1c(C)cccc1C)Cc1cccc(C(=O)*)c1; Aha = [N-]=[N+]=NCC[C@H](N)C(=O)O

Molecular target: T1, MMP-8 (Homo sapiens, UniProt P22894)
T1 construct: purchased EMD Millipore Corporation (Billerica, MA)
Assay: MMP-8 cleavage of soluble PCL conjugates (HPLC decrease of main peak)
Assay type: biochemical
Conditions: 900 ng/mL MMP-8, 60 min; p < 0.001, t-test
Description: Pro-MMPs (e.g., MMP-8, MMP-1, or MMP-9; used at 0.1 mg/mL and >100.0 mU/mg based on the manufacturer’s information) were activated with p-aminophenylmercuric acetate (APMA) (8). For that, a 10 mM stock solution of APMA was freshly prepared in 0.1 M NaOH and a 10:1 (v/v) ratio of the respective proenzyme and the APMA solution (MMP:APMA) was incubated for 3 h at 37 °C. The activity was confirmed using the MMP-8 detection kit (QuickZyme Biosciences, Leiden, the Netherlands). A stock solution (90 µg/mL) of the activated MMP was prepared (used for cleavage studies on the PCL or the fully assembled microparticle-PCL-tastant setup (sensor), in MMP-8 buffer (200 mM NaCl, 50 mM Tris-HCl, 5 mM CaCl2, 1 µM ZnCl2, 0.05% Brij 35 at pH 6.8–7.0). All MMP experiments are described in detail in the Supplementary Methods. […]
in water ( v/v)) and eluent B (0.1 % TFA in 2:3 water-acetonitrile (v/v)) and a gradient from 33 to 80% elu ent B within 30 minutes. UV absorption was r ead at λ = 280 nm or 220 nm. After freezing the samples at -80 °C, fr eeze- drying was performed on a Christ Alpha 1 -4 de vi ce (Martin Christ Gefriertrocknungs anlagen, Osterode am Harz, G e r ma n y) at a desublimers ’ te mperature of - 60 ° C, pressure of 1.030 mbar and processing temperature of 19 °C.
Pro-MMPs (e. g. MMP -8, MMP -1 or MMP-9; adapted to 0.1 mg/mL and > 100.0 mU/mg based on manufacturer information and when appropriate) were activated with APMA 8. For that, a 10 mM stock solution of APMA in 0.1 M NaOH was freshly prepared and a 10:1 (v/v) ratio of the r especti ve proenzyme and APMA solution (MMP:APMA) was incubated for 3 h at 37 °C. The activity was conf ir med using the MMP-8 detection kit (Q uic kZ ym e® Biosciences, Leiden, Netherlands). A stock solution (90 µg/mL) of the activated MMP was prepared (used for cleavage studies on the pr ot eas e-cleavable linker (PCL; e.g. Figure 2) or the fully assemb led microparticle -PCL- t ast ant setup (sensor; e.g. Figure 3) , in MMP -8 buffer (200 mM NaCl, 50 mM Tris-H Cl, 5 mM C aC l2, 1 µM ZnCl2, 0.05 % Brij35 at pH 6.8- 7.0). A ll MMP -8 exp eriments wer e performed as follo ws. 25 µg of the sensor ( see chap ter : Peptide-coupling to beads (Sensor)) in 100 µL MMP-buffer or 1 mg of FP LC -purified and lyophilized PCL as described dissolved 2 mL M MP -buffer resulting in a final concentration of 0.5 mg/ mL substrate was used. […]
Figure 2A , 3, 4B ). […]
(sensor) in co mpar ison to negative controls (the negative controls for the PCL an d sensor exper i men ts were b y incubation without MMP under otherwise identical conditions). The relative d ecreas e of the PCL’s ma in peak was char act er ized by HPLC (PCL) or of the sensor’s fluorescence b y FACS (sensor) in comparison to control. […]

T1 sequence (P22894 101-467): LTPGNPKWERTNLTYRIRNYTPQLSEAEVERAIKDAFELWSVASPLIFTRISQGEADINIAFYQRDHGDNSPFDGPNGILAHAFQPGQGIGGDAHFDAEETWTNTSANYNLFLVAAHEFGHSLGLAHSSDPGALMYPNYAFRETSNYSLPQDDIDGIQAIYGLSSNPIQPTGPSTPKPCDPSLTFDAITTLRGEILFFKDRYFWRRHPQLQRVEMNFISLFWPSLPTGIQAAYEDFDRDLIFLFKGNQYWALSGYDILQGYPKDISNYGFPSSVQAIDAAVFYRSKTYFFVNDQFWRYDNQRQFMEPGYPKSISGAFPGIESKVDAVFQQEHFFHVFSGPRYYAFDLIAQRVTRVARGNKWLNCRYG

`CC[C@H](C)[C@H](NC(=O)CNC(=O)[C@H](CCC(N)=O)NC(=O)[C@@H]1CCCN1C(=O)CNC(=O)c1cccc(C[N+](CC)(CC)CC(=O)Nc2c(C)cccc2C)c1)C(=O)N[C@@H](C)C(=O)NCC(=O)N[C@@H](CCC(N)=O)C(=O)N[C@@H](CCN=[N+]=[N-])C(=O)N[C@@H](CCC(N)=O)C(=O)O` [ID #1c] (X1-GPQGIAGQ[Aha]Q-OH) was tested, and the “Cleavage by MMP-8 compared with the PCL carboxyfluorescein conjugate (ID #1b)” value was “significantly better”.
